The test deals with T1, CXCR4 (Homo sapiens, UniProt P61073).
T1 construct: full-length endogenous receptor on intact Jurkat T cells, untagged
Description: inhibition of CXCL12-AF647 binding to intact Jurkat cells, flow cytometry. Particulars: competition with 2.9 nM CXCL12-AF647; HBSS, 20 mM HEPES, 0.2% BSA, pH 7.4, RT; 15 min preincubation, 30 min with tracer; n = 3; chelator without gallium. It is filed as cell-based. An excerpt:
inhibition of CXCL12-AF647 binding to intact Jurkat cells, flow cytometry on CXCR4

We go through 1 compound from publication PMC11335985, “Radiosynthesis and preclinical evaluation of a ^68Ga-labeled tetrahydroisoquinoline-based ligand for PET imaging of C-X-C chemokine receptor type 4 in an animal model of glioblastoma” (EJNMMI Radiopharmacy and Chemistry, 2024).

T1 sequence (P61073 whole entry): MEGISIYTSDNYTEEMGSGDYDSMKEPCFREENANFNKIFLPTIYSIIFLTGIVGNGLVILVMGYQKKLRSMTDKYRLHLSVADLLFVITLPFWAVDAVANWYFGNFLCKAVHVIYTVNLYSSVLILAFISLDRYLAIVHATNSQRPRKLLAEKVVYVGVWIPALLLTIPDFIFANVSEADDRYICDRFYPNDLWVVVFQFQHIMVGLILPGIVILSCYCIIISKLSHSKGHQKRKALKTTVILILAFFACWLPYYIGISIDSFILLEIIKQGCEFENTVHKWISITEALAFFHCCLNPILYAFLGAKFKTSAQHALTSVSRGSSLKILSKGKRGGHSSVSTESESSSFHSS

Broadly, the IC50 is the concentration at which inhibition is half-maximal. Lower therefore signals inhibition by little substance. Regarding `O=C(O)CN1CCN(CC(=O)O)CCN(C(CCC(=O)NCc2ccc(NC(=S)NCCCCN(C[C@H]3Cc4ccccc4CN3)[C@H]3CCCc4cccnc43)cc2)C(=O)O)CCN(CC(=O)O)CC1` (stereo partly shown) [TD-01], the 50% inhibitory concentration (IC50) worked out at 36.5 ± 1.4 nM.
